Test results: patent US20060270655A1, “Combination therapy for treating obesity or maintaining weight loss” (priority 2005, published 2006)

Assay: Food intake (12 hour spontaneous food intake, rats on high fat diet)
Assay type: in vivo
Settings: male Sprague-Dawley rats
Description: The following functional assay was used to determine the effect of an intestinal-acting MTPi, a CB-1 antagonist, and the combination of an intestinal-acting MTPi and a CB-1 antagonist on food intake. The doses of the CB-1 antagonist used in the experiments were 10 mg/kg and 30 mg/kg. The doses of the intestinal-acting MTPi used in the experiments were 3 mg/kg and 10 mg/kg. The different dosages for each active were tested alone and in various combinations with each other as compared to a control (vehicle).
Male Sprague-Dawley rats (275-325 grams) were placed on a high fat diet (Research Diets, 45% kcal from fat). Animals were acclimated to an automated food intake assessment system overnight. Food weight data was collected by computer acquisition. Immediately prior to the start of the dark cycle on the first day, animals were given a PO (i.e., orally by mouth) dose of a gMTP inhibitor (Dirlotapide) or vehicle (self-emulsifying drug delivery system (SEDDS) formulation containing 20% Miglyol 812, 30% Triacetin, 20% Tween 80, and 30% Capmul MCM). On the second day, rats (n=5-10/group) were given a PO dose of a CB-1 antagonist (Compound A) or 0.5% methylcellulose 20 minutes prior to a second dose of Dirlotapide or vehicle. Food Intake was monitored until the following day. Data for each treatment group was compared by ANOVA (analysis of variance).

SMILES	12 hour Spontaneous Food Intake (10 mg/kg Compound A PO alone (plus SEDDS vehicle)) [grams]	12 hour Spontaneous Food Intake (30 mg/kg Compound A PO alone (plus SEDDS vehicle)) [grams]	12 hour Spontaneous Food Intake (3 mg/kg Dirlotapide PO alone (two daily doses, plus 0.5% methylcellulose)) [grams]	12 hour Spontaneous Food Intake (10 mg/kg Dirlotapide PO alone (two daily doses, plus 0.5% methylcellulose)) [grams]
CCNC1(C(N)=O)CCN(c2ncnc3c2nc(-c2ccccc2Cl)n3-c2ccc(Cl)cc2)CC1 [Compound A, 1-[9-(4-chloro-phenyl)-8-(2-chloro-phenyl)-9H-purin-6-yl]4-ethylamino-piperidine-4-carboxylic acid amide]	16.3 ± 1.0	12.6 ± 1.4	–	–
CN(Cc1ccccc1)C(=O)[C@@H](NC(=O)c1cc2cc(NC(=O)c3ccccc3-c3ccc(C(F)(F)F)cc3)ccc2n1C)c1ccccc1 [Dirlotapide, (S)-N-{2-[benzyl(methyl)amino]-2-oxo-1-phenylethyl}-1-methyl-5-[4′-(trifluoromethyl)[1,1′-biphenyl]-2-carboxamido]-1H-indole-2 carboxamide]	–	–	14.6 ± 0.8	11.3 ± 0.7
